The subject of data set [1] is overnight fasted Wistar rats. In words: Oral maltose tolerance test. It counts as in vivo, rat. The settings on record: acarbose 3 mg/kg oral, maltose 3 g/kg, compared to maltose control. The source says:
(§1) Adult Wistar rats weighing 150–180 g were collected from the University Central Animal Facility and housed under a controlled environment. All animal experiments were approved by the Institutional Animal Ethical Committee (Order No : MGZ/2620/2011-12 Dated 31-01-2012; UOM/IAEC/18/2011), Department of Studies in Zoology, University of Mysore, Mysore and were in accordance with the guidelines of the Committee for the Purpose of Control and Supervision of Experiments on Animals (CPCSEA).
(§2) The experimental animals were randomly divided into 11 groups each consisting of 5 rats. […] Blood was collected from the tail vein to the tubes containing anticoagulant (2.5% trisodium citrate and 1.37% citric acid in the ratio 1∶5; anti-coagulant: blood) at time point 0 (just before sucrose/maltose administration), and subsequently at 30, 60, 90, 120 and 180 min after substrate (sucrose/maltose) administration. Plasma was separated by centrifuging the samples at 2000 rpm for 10 min and stored at −20°C until analysis. Plasma glucose concentration was determined by using the Glucose oxidase (GOD POD) kit according to the manufacturer’s protocol.

The subject of data set [2] is overnight fasted Wistar rats. In words: Oral sucrose tolerance test. It counts as in vivo, rat. The conditions noted are these: acarbose 3 mg/kg oral, sucrose 3 g/kg, compared to sucrose control.
Description: as §1, §2

The next data set deals with rat intestinal maltase. In words: Intestinal α-glucosidase inhibitory assay, maltose as substrate. It counts as biochemical. The settings on record: rat intestinal acetone powder, maltose 37 mM, 30 min. Here is the method:
Intestinal α-glucosidase activity was determined by measuring the amount of glucose hydrolyzed from maltose or sucrose. Briefly, rat intestinal acetone powder was homogenized in 0.9% saline and the suspension was centrifuged at 10,000 g for 30 min at 4°C and the supernatant obtained was used as enzyme source. […] After the respective incubation period, reaction was terminated by keeping the samples in boiling water bath for 10 min. The concentration of glucose released from the reaction mixtures was determined by using Glucose oxidase (GOD POD) kit according to the manufacturer’s protocol. Results were expressed as percentage inhibition of intestinal maltase/sucrase activity.

For data set [3], the target named is T1, Porcine pancreatic α-amylase (Sus scrofa, UniProt P00690).
T1 construct: purchased SRL, Mumbai (India)
T1 sequence (P00690 16-511): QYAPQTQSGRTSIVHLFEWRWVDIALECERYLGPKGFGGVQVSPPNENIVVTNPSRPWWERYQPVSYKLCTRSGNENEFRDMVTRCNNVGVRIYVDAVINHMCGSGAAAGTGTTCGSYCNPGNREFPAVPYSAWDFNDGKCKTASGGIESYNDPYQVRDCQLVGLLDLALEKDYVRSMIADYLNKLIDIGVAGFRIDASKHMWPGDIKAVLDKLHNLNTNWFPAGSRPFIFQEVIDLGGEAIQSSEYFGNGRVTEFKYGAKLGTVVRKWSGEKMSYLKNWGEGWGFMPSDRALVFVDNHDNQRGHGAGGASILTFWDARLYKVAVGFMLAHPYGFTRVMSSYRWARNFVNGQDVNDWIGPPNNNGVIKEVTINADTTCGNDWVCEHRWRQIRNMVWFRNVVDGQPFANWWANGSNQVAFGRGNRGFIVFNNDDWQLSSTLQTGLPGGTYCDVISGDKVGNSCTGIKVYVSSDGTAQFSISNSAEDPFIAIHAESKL
In words: α-amylase inhibition assay (starch, DNS reagent). It counts as biochemical. The settings on record: 0–100 µM, pre-incubation 10 min 37°C, pH 6.9; NS = not significant. On the procedure:
Porcine pancreatic α-Amylase and Yeast α-Glucosidase were purchased from SRL, Mumbai (India). Glucose oxidase (GOD POD) kit was purchased from Piramal HealthCare Ltd, Mumbai (India). All other chemicals used were of analytical grade and purchased from Sigma Aldrich, St. Louis (USA) and SRL, Mumbai (India). […] Mass spectra were determined on a Shimadzu LC-MS. The elemental analyses were carried out using an Elemental Vario Cube CHNS rapid Analyzer. The progress of the reaction was monitored by TLC pre-coated silica gel G plates.
The α-amylase inhibition assay was performed according to a previous report. Porcine pancreatic α-amylase (3 units/mL) was dissolved in 0.1 M phosphate buffered saline, pH 6.9. […] The reaction was initiated by adding substrate solution (0.1% starch) to the incubation medium. After 10 min incubation, the reaction was stopped by adding 250 µL dinitrosalicylic (DNS) reagent (1% 3, 5-dinitrosalicylic acid, 0.2% phenol, 0.05% Na2SO3 and 1% NaOH in aqueous solution) to the reaction mixture. The reaction was terminated by keeping the reaction mixture in boiling water bath for 10 min. Thereafter, 250 µL of 40% potassium sodium tartarate solution was added to the mixtures to stabilize the colour. After cooling to room temperature in a cold water bath, the absorbance was recorded at 540 nm using a Varioskan multimode plate reader (Thermo Scientifics, USA). Acrabose was used as positive control. The percentage of inhibition was calculated using Abs Contol – Abs Sample ×100/Abs Control. Where Abs Control was the absorbance without sample, Abs sample was the absorbance of enzyme with compound.

The target in a further data set is T2, α-Glucosidase (Saccharomyces cerevisiae, UniProt P53341).
T2 construct: purchased SRL, Mumbai (India)
The data set can be described thus: biochemical. The settings on record: 0–100 µM, pre-incubation 10 min 37°C, pH 6.9; NS = not significant. Here is the method:
Porcine pancreatic α-Amylase and Yeast α-Glucosidase were purchased from SRL, Mumbai (India). Glucose oxidase (GOD POD) kit was purchased from Piramal HealthCare Ltd, Mumbai (India). All other chemicals used were of analytical grade and purchased from Sigma Aldrich, St. Louis (USA) and SRL, Mumbai (India). All IR spectra were obtained in KBr disc on a Shimadzu FT-IR 157 Spectrometer. ^1H and ^13C NMR spectra were recorded on a Bruker WH-200 (400 MZ) spectrometer in CDCl3 or DMSO-d6 as solvent, using TMS as an internal standard and chemical shifts are expressed as ppm. Mass spectra were determined on a Shimadzu LC-MS. The elemental analyses were carried out using an Elemental Vario Cube CHNS rapid Analyzer. The progress of the reaction was monitored by TLC pre-coated silica gel G plates.
The α-glucosidase inhibitory activities of synthesized compounds were evaluated using the method developed by Tsujii et al.. Briefly, α-glucosidase was dissolved in phosphate buffer (50 mM, pH 6.9) and pre-treated with various concentrations of 1,3-benzoxazine derivatives (0–100 µM) independently for 10 min at 37°C. The reaction was initiated by the addition of 50 µL of 5 mM p-nitrophenyl- α -D-glucopyranoside solution in phosphate buffer (50 mM, pH 6.9). The enzyme reaction was carried out at 37°C for 30 min. The reaction was terminated by the addition of Na2CO3 (1 M). The enzymatic activity of α-glucosidase was quantified by measuring the absorption at 405 nm using a Varioskan multimode plate reader (Thermo Scientifics, USA). The inhibitory effect of compounds was defined as inhibitory activity (%) = (Abs Control – Abs Compound treated)/Abs Control ×100. Concentration-response assays were used to determine the potency (IC50) of 1,3-benzoxazine derivatives based on the logistic analysis of the concentration-response curve using Microsoft Excel.

Several values for one entry are separate records, joined by “and”; a condition that tells them apart may be missing. Equal entries are not always repeated. Some results are limits rather than exact numbers.

The term IC50 denotes the concentration at which inhibition is half-maximal. A high value points to lower potency. As a reminder, the melting point is the temperature of the solid-liquid transition.

T2 sequence (P53341 whole entry): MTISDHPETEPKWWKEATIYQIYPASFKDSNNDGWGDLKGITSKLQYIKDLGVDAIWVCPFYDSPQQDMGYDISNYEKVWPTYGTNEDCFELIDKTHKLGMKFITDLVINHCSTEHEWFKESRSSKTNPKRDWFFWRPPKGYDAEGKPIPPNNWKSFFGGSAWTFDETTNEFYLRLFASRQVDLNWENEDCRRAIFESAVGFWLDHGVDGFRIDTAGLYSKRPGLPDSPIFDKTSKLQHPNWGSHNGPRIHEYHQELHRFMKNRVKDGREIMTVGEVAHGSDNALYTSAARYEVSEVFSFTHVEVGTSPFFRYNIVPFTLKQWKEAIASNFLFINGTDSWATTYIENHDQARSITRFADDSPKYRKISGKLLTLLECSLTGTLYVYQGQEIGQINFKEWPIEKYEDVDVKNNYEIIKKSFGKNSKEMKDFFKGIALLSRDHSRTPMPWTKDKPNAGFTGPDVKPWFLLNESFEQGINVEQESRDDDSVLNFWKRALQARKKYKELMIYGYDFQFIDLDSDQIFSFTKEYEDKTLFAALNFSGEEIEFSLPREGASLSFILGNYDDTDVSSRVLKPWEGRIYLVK

As for `C[C@H]1O[C@H](O[C@H]2[C@H](O)[C@@H](O)[C@@H](O[C@H]3[C@H](O)[C@@H](O)C(O)O[C@@H]3CO)O[C@@H]2CO)[C@H](O)[C@@H](O)[C@@H]1N[C@H]1C=C(CO)[C@@H](O)[C@H](O)[C@H]1O` (some centres unmarked) [Acarbose, reference compound], the plasma glucose concentration result in data set [1] is “significantly reduced the plasma glucose concentration at 30, 60, 90 min time intervals”; in data set [2] it was “only significant at 60 and 90 min time points”. The molecule further showed an IC50 against rat intestinal maltase of 3.5 µM.

In turn, `Oc1ccc(C2Nc3ccccc3CO2)cc1` (centres unmarked) [compound 1, 4-(2,4-dihydro-1H-benzo[d][1,3]oxazin-2-yl)phenol] registered a melting point of 160 to 162 °C. In data set [3], it took 20.4 ± 0.2 µM to reach half-maximal inhibition (IC50). At α-Glucosidase, the IC50 is 17.1 ± 0.1 µM.

As to `c1ccc2c(c1)COC(c1c[nH]c3ccccc13)N2` (centres unmarked) [compound 2, 2-(1H-indol-3-yl)-2,4-dihydro-1H-benzo[d][1,3]oxazine], the IC50 came out at 59.2 ± 1 µM in data set [3] and 32 ± 0.2 µM at α-Glucosidase.

For the molecule `Cc1[nH]c2ccccc2c1C1Nc2ccccc2CO1` (centres unmarked) [compound 3, 2-(2-methyl-1H-indol-3-yl)-2,4-dihydro-1H-benzo[d][1,3]oxazine], the IC50 in data set [3] is 10.6 ± 0.3 µM; against α-Glucosidase, 21.6 ± 0.1 µM.

Take `N#Cc1ccccc1-c1ccc(Cn2cc(C3Nc4ccccc4CO3)c3ccccc32)cc1` (centres unmarked) [compound 4]: the IC50 (in data set [3]; at α-Glucosidase) was > 100 µM throughout.

The molecule `O=c1c(C2Nc3ccccc3CO2)coc2ccccc12` (centres unmarked) [compound 5, 3-(2,4-dihydro-1H-benzo[d][1,3]oxazin-2-yl)-4H-chromen-4-one] displayed a melting point of 142 to 144 °C. In data set [3], the IC50 came to 23.3 ± 0.5 µM. In addition, at α-Glucosidase, the IC50 is > 100 µM.

`CCCCc1nc(Cl)c(C2Nc3ccccc3CO2)[nH]1` (centres unmarked) [compound 6, 2-(2-butyl-4-chloro-1H-imidazol-5-yl)-2,4-dihydro-1H-benzo[d][1,3]oxazine]: the melting point lay within 80 to 82 °C. The same molecule gave an IC50 in data set [3] of 18.5 ± 0.1 µM. For the same molecule, the IC50 against α-Glucosidase is 16 µM and 16.7 µM.

Regarding `Clc1ccc2c(c1)NC(c1c[nH]c3ccccc13)OC2` (centres unmarked) [compound 8, 7-chloro-2-(1H-indol-3-yl)-2,4-dihydro-1H-benzo[d][1,3]oxazine], the IC50 in data set [3] is 26.4 ± 0.5 µM; at α-Glucosidase it was 27.7 ± 1 µM.

As to `Clc1ccc2c(c1)COC(c1c(-c3ccccc3)[nH]c3ccccc13)N2` (centres unmarked) [compound 9, 6-chloro-2-(2-phenyl-1H-indol-3-yl)-2,4-dihydro-1H-benzo[d][1,3]oxazine], the 50% inhibitory concentration (IC50) was found to be 22.2 ± 0.1 µM in data set [3] and 27.8 ± 0.2 µM at α-Glucosidase.

Regarding `O=c1c(C2Nc3ccc(Cl)cc3CO2)coc2ccccc12` (centres unmarked) [compound 10, 3-(6-chloro-2,4-dihydro-1H-benzo[d][1,3]oxazin-2-yl)-4H-chromen-4-one], the melting point was in the range of 141 to 143 °C. Also, the IC50 in data set [3] was > 100 µM. On α-Glucosidase, the IC50 is 31.9 ± 0.8 µM.

`Cc1ccc2c(c1)COC(c1c(C)[nH]c3ccccc13)N2` (centres unmarked) [compound 11, 6-methyl-2-(2-methyl-1H-indol-3-yl)-2,4-dihydro-1H-benzo[d][1,3]oxazine]: the IC50 in data set [3] was > 100 µM; against α-Glucosidase, 23.8 ± 0.1 µM.

With `Cc1ccc2c(c1)COC(c1c(-c3ccccc3)[nH]c3ccccc13)N2` (centres unmarked) [compound 12, 6-methyl-2-(2-phenyl-1H-indol-3-yl)-2,4-dihydro-1H-benzo[d][1,3]oxazine], the IC50 in data set [3] was 17.6 ± 0.3 µM; at α-Glucosidase it was 20.5 ± 0.5 µM.

`Cc1ccc2c(c1)COC(c1coc3ccccc3c1=O)N2` (centres unmarked) [compound 13, 3-(6-methyl-2,4-dihydro-1H-benzo[d][1,3]oxazin-2-yl)-4H-chromen-4-one]: the melting point is 202 to 204 °C. This molecule also displayed an IC50 in data set [3] of 51 ± 0.3 µM. The half-maximal inhibitory concentration (IC50) on α-Glucosidase is > 100 µM.

The values are drawn from paper PMC4105438, “Novel Benzoxazine-Based Aglycones Block Glucose Uptake In Vivo by Inhibiting Glycosidases” (PLoS ONE, 2014).
